Reference: patent US11458138B2 (Novartis AG, priority 2017, dated 2022)

Legend:
[1] = test system: Phospho-YAP (SER127) in HaCaT cells; assay: pYAP HTRF Assay (HaCaT Cells); assay type: cell-based, human; details: Homo sapiens, 2 hours
In short: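 HaCaT cells at 5500 cells/well were cultured 48 hours at 37° C, then treated with compound for 2 hours. Phospho-YAP (Ser127) was detected by HTRF after an overnight (20 hrs) room-temperature incubation, read as the 665 nm/620 nm ratio.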

[2] = test system: Phospho-YAP (Ser127) in JHH-5 cells; assay: pYAP HTRF Assay (JHH-5 cells); assay type: cell-based; details: 2 hours
In short: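 JHH-5 cells (24000/well) cultured 24 h at 37 °C in William's E with 10% FBS, then exposed to compounds for 2 h at 37 °C. After lysis, pYAP d2/cryptate antibodies incubated 18 h at room temperature; HTRF ratio 665/620 nm ×10000.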

[3] = test system: limbal stem cells (LSCs); assay: Immunolabelling of LSC markers DeltaN-p63 alpha/beta/gamma, ABCG2, C/EBP delta; assay type: cell-based, human; details: vs cells cultured in DMSO
Excerpt: In contrast, cells cultured in the presence of LATS inhibitors express markers such as DeltaN-p63 alpha/beta/gamma, ABCG2 and C/EBP delta, normally expressed by LSCs.
(3) The cells express one or more of ABCB5, ABCG2, and C/EBPδ. The expression of ABCB5, ABCG2, and C/EBPδ may be estimated by standard techniques known in the art, such as for example immunohistochemistry and quantitative RT-PCR.

[4] = test system: YAP phosphorylation in CECs; assay: YAP dephosphorylation in CECs by Western blot; assay type: cell-based, human; details: within one hour of treatment, normalized to beta-actin and total YAP
Excerpt: As shown in FIG. 15a by Western blot; FIG. 15b: graph showing phosphorylated YAP levels normalized to beta-actin; and FIG. 15c: graph showing phosphorylated YAP levels normalized to total YAP.

[5] = test system: YAP in human LSCs; assay: Intracellular YAP distribution in limbal epithelial cells (LSCs); assay type: cell-based; details: 10 micromolar, 24 hours, vs DMSO
Method: Cells obtained as described in Example B1 were plated in glass-bottom black wall 24-well dishes in limbal epithelium cell culture medium (DMEM F12 supplemented with 10% human serum and 1.3 mM calcium chloride) supplemented with LATS inhibitor compound example no. […] Cells were cultured under these conditions for 24 hours at 37° C. in 5% CO2.
(§1) To measure the effect of the LATS inhibitors on the downstream target YAP, intracellular YAP distribution was analyzed by immunohistochemistry. Cell cultures were fixed with 4% PFA for 20 minutes, permeabilized and blocked in a blocking solution of 0.3% Triton X-100 (Sigma-Aldrich) and 3% donkey serum in PBS for 30 minutes. Cells were then labeled with primary antibody in the blocking solution for 12 hours at 4° C. Primary antibody used was anti-YAP from Santa Cruz Biotechnology. Samples were washed in PBS three times and donkey-raised secondary antibody Alexa Fluor 488 (Molecular Probes) at 1:500 dilution were applied for 30 minutes at room temperature. […] Fluorescence was observed using a Zeiss LSM 880 confocal microscope.

[6] = test system: phospho-YAP (ser127) in human LSCs; assay: YAP phosphorylation by western blot in LSCs; assay type: cell-based; details: 10 micromolar, 1 hour
Method: Cells obtained as described in Example B1 were detached from the culture dish with Accutase for 10 minutes at 37° C., cell suspensions were rinsed by centrifugation and plated in DMEM F12 supplemented with 10% human serum and 1.3 mM calcium chloride in 6-well plates (Corning) and cultured without LATS inhibitor compounds for 2-4 days.
The medium was then replaced by fresh limbal epithelium cell culture medium (DMEM F12 supplemented with 10% human serum and 1.3 mM calcium chloride) supplemented with LATS inhibitor compound example no. […] Cells were cultured under these conditions for 1 hour at 37° C. in 5% CO2.
To measure the effect of the LATS inhibitors on the downstream target YAP, the YAP phosphorylation levels were measured by western blot as follows. The cell pellets were obtained by trypsin dissociation and centrifugation and washed with PBS. The pellets were lysed with 30 microlitres of RIPA lysis buffer containing protease inhibitor cocktail (Life Technologies) for 30 minutes, with vortexing every 10 minutes. The cell debris were then pelleted at 4° C. for 15 minutes at 14 k rpm and the protein lysate was collected. Protein concentration was quantified using a micro BCA kit (Pierce). Fifteen micrograms of total protein was loaded in each well of 4-20% TGX gels (BioRad) and Western blotting was performed according to the manufacturer's instructions. […]

[7] = test system: YAP in human CECs; assay: Intracellular YAP distribution in corneal endothelial cells (CECs); assay type: cell-based; details: 10 micromolar, 24 hours
Method: Cells obtained as described in Example C1 were plated in glass-bottom black wall 24-well dishes in corneal endothelial cell culture medium (human endothelial SF (serum free) medium (Invitrogen) with human serum) supplemented with LATS inhibitor compound example no. 133 or compound example no. […] Cells were cultured under these conditions for 24 hours at 37° C. in 5% CO2.
as §1

Structure (SMILES) | IC50 [2] [nM] | IC50 [1] [nM] | expression of LSC markers DeltaN-p63 alpha/beta/gamma, ABCG2 and C/EBP delta [3] | YAP dephosphorylation in CECs [4] | YAP immunostaining in the nucleus of LSCs [5] | YAP phosphorylation levels in human LSCs (western blot) [6] | YAP immunostaining in CECs [7]
CCCNc1nc(-c2ccncc2)nc2cnccc12 [Example 14, N-propyl-2-(pyridin-4-yl)pyrido[3,4-d]pyrimidin-4-amine] | > 10000 | 7310 | – | – | – | – | –
Cc1n[nH]cc1-c1nc(NC2(C)CC2)c2ccncc2n1 [Example 133, 2-(3-methyl-1H-pyrazol-4-yl)-N-(1-methylcyclopropyl)pyrido[3,4-d]pyrimidin-4-amine] | 1700 | 414 | express typical markers of LSCs | induce YAP dephosphorylation | stronger in the nucleus | reduction in YAP phosphorylation levels | stronger

Further lines, with some results ahead:

IC50 [2] [nM] | Structure (SMILES) | IC50 [1] [nM] | expression of LSC markers DeltaN-p63 alpha/beta/gamma, ABCG2 and C/EBP delta [3] | YAP dephosphorylation in CECs [4] | YAP immunostaining in the nucleus of LSCs [5] | YAP phosphorylation levels in human LSCs (western blot) [6] | YAP immunostaining in CECs [7]
1600 | CC(C)(O)CC(C)(C)Nc1nc(-c2ccncc2)nc2cnccc12 [Example 49, 2,4-dimethyl-4-{[2-(pyridin-4-yl)pyrido[3,4-d]pyrimidin-4-yl]amino}pentan-2-ol] | 607 | express typical markers of LSCs | induce YAP dephosphorylation | stronger in the nucleus | reduction in YAP phosphorylation levels | stronger
5800 | c1cc(-c2nc(NC3CCCC3)c3ccncc3n2)ccn1 [Example 65, N-cyclopentyl-2-(pyridin-4-yl)pyrido[3,4-d]pyrimidin-4-amine] | 895 | – | – | – | – | –
600 | CC(C)(C)Nc1cc(-c2ccncc2)nc2cnccc12 [Example 261, N-(tert-butyl)-2-(pyridin-4-yl)-1,7-naphthyridin-4-amine] | 202 | – | – | – | – | –
